Patent US7576094B2, “Spiro derivatives as lipoxygenase inhibitors” (Eli Lilly and Company, priority 2004, dated 2009)

Assays:
[1] = test system: LTB4 production in human whole blood; test: Inhibition of LTB4 Production in Blood; format: cell-based; conditions: 1 h, 20 μM A23187, 60 minutes at 37° C., LTB4 in plasma by ELISA, read-out: protection against LTB4 at an EC50
Outline: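 Citrated human whole blood preincubated 15 min at 37 °C with compound (top final 30 μM, 1:3 dilutions, quadruplicate), then stimulated with 20 μM A23187 for 60 min at 37 °C. Plasma LTB4 quantified by ELISA; IC50 from percent inhibition versus vehicle.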

[2] = test system: release of the leukotriene LTB4 from a neutrophil cell line (MPRO cell line); test: LTB4-Cell Assay; format: cell-based; conditions: Mus musculus, 1 h, read-out: inhibition of LTB4 with an EC50
Outline: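 Mouse promyelocytic cells differentiated to neutrophils with 10 μM all-trans retinoic acid for 72 h, then stimulated with 1 μM A23187 plus compound for 1 h at 37° C. Supernatant LTB4 quantified by competitive EIA; 5 concentrations in quadruplicate from 10 μM top.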

[3] = target: T1, porcine leukocyte 12/15-Lipoxygenase (Sus scrofa, UniProt P16469); test: 12/15-Lipoxygenase Enzyme Assay; format: biochemical; conditions: 70 μM arachidonic acid, 10 minute incubation at room temperature, FOX reagent, absorbance at 620 nm; read-out: inhibition of 12/15-Lipoxygenase with an IC50
T1 sequence (P16469 1-663): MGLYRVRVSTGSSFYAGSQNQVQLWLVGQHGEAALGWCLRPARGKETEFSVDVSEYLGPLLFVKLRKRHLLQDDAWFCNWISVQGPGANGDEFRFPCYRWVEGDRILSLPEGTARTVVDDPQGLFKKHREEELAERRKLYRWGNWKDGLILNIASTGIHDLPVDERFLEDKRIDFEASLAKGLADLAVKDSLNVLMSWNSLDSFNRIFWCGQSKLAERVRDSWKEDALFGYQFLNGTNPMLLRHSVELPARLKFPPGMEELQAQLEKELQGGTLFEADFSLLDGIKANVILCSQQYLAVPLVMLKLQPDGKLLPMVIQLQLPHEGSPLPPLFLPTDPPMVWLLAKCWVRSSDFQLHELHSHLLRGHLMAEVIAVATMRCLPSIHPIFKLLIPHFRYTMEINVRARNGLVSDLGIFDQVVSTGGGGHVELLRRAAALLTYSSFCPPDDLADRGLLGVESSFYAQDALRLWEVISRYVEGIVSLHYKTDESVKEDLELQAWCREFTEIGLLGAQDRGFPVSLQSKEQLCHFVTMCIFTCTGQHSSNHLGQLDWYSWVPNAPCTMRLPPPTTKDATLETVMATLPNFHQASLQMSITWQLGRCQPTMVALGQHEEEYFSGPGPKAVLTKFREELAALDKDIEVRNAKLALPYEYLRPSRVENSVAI
Excerpt: This procedure was used for measuring the enzymatic activity of porcine leukocyte 12/15-Lipoxygenase using a […] method based on the ferric oxidation of xylenol orange.
• 96 well flat bottom microfilter plates (VWR, Catalog # 62402-933 9295) • Lipoxygenase screening assay buffer (Cayman, Catalog # 760710) • Porcine leukocyte 12/15-Lipoxygenase (Cayman, Catalog # 60300) • Arachidonic Acid (Sigma, Catalog # A3555) • Xylenol orange tetrasodium salt (Aldrich, Catalog # 227854) • Iron (II) sulfate heptahydrate (Sigma, Catalog # F7002) • Sulfuric acid (95-98%) [18M] • Methanol Procedure
Porcine Leukocyte 12/15-Lipoxygenase (Cayman Cat # 60300) was used in this assay. Test compound and/or vehicle was added to 1.3 μL 12/15-Lipoxygenase in 50 mM Tris-HCl buffer, pH 7.4. The reaction was initiated by addition of 70 μM arachidonic acid in Tris-HCl buffer, pH 7.4, and terminated after a 10 minute incubation at room temperature by addition of FOX reagent (25 mM sulfuric acid, 100 μM xylenol orange, 100 μM iron (II) sulfate, methanol:water 9:1). The yellow color of acidified xylenol orange was converted to a blue color by the lipid hydroperoxide-mediated oxidation of Fe^2+ ions and the interaction of the resulting Fe^3+ ions with the dye. The complex was allowed to form during a 1 hour incubation at room temperature with shaking. Absorbance of the Fe^3+ complex was then measured at […] using a spectrophotometer.
Negative controls contained enzyme during the incubation step but substrate was not added until after the FOX reagent. Compounds are screened at 5 concentrations in triplicate starting at 10 μM

[4] = target: T2, human recombinant 5-Lipoxygenase (Homo sapiens, UniProt P09917); test: 5-Lipoxygenase Enzyme Assay; format: biochemical; conditions: 70 μM arachidonic acid, 10 minute incubation at room temperature, FOX reagent, absorbance at 620 nm; read-out: inhibition of 5-Lipoxygenase with an IC50
T2 sequence (P09917 1-674): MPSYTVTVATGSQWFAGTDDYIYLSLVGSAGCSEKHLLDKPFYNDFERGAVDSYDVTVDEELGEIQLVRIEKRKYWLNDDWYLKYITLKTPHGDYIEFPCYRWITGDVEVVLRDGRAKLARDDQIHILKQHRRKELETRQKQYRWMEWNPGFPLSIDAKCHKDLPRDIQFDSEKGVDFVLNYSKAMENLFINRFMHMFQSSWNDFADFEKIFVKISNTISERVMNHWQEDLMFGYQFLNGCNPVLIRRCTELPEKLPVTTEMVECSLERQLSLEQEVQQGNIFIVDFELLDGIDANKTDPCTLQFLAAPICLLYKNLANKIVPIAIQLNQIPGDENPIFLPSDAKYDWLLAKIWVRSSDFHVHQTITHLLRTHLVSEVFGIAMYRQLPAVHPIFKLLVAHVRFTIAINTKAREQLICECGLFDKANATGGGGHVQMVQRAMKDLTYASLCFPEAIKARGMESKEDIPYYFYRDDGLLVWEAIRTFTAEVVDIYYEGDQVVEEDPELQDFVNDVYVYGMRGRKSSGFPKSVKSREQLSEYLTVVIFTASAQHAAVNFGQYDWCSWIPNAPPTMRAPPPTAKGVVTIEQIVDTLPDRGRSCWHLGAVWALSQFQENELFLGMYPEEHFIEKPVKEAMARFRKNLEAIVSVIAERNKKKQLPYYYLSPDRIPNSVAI
Outline: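 Recombinant human 5-LOX in 50 mM Tris-HCl pH 7.4 was preincubated with compound, then 70 μM arachidonic acid was added for 10 min at room temperature. Hydroperoxide was read by FOX reagent (ferric xylenol orange, 1 h complex formation) as absorbance at 620 nm. Five concentrations in triplicate were tested, starting at 10 μM.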

| SMILES | EC50 [1] [µM] | EC50 [2] [µM] | IC50 [3] [µM] | IC50 [4] [µM] |
| --- | --- | --- | --- | --- |
| CO/N=C/C1=Cc2c(cc(C)c(O)c2C)OC12CCC2 [6-hydroxy-5,7-dimethylspiro[chromene-2,1′-cyclobutane]-3-carbaldehyde O-methyloxime] | < 10 | < 5 | < 5 | – |
| COC(=O)CSCC1Cc2c(C)c(O)c(C)c(C)c2OC12CCC2 (stereo not drawn) [methyl {[(6-hydroxy-5,7,8-trimethyl-3,4-dihydrospiro[chromene-2,1′-cyclobutan]-3-yl)methyl]thio}acetate] | – | < 5 | < 5 | < 0.3 |
| Cc1c(C)c2c(c(C)c1O)C=CC1(CCC1)S2 [5′,7′,8′-trimethylspiro[cyclobutane-1,2′-thiochromen]-6′-ol] | – | < 5 | < 5 | < 0.3 |
| Cc1c(C)c2c(c(C)c1O)C(OC1CCCC1)CC1(CCC1)O2 (stereo not drawn) [4-(cyclopentyloxy)-5,7,8-trimethyl-3,4-dihydrospiro[chromene-2,1′-cyclobutane]-6-diol] | – | < 5 | < 5 | < 0.3 |
| Cc1c(O)c(C)c2c(c1Cl)OC1(CCC1)CC2 [8-chloro-5,7-dimethyl-3,4-dihydrospiro[chromene-2,1′-cyclobutan]-6-ol] | – | < 5 | < 5 | < 0.3 |
| Cc1c(C)c2c(c(C)c1O)CCC1(CCC1)O2 [5,7,8-trimethyl-3,4-dihydrospiro[chromene-2,1′-cyclobutan]-6-ol] | – | < 5 | < 5 | < 0.3 |
| CCOC1CC2(CCC2)Oc2c(C)c(C)c(O)c(C)c21 (stereo not drawn) [4-ethoxy-5,7,8-trimethyl-3,4-dihydrospiro[chromene-2,1′-cyclobutan]-6-ol] | – | < 5 | < 5 | < 0.3 |
| Cc1c(O)c(Cl)c(C)c2c1CCC1(CCC1)O2 [7-chloro-5,8-dimethyl-3,4-dihydrospiro[chromene-2,1′-cyclobutan]-6-ol] | – | < 5 | < 5 | < 0.3 |
